According to patent publication US20210275680A1, “USE OF THE TAS1R3 PROTEIN AS A MARKER FOR THERAPEUTIC, DIAGNOSTIC, AND/OR PROGNOSTIC PURPOSES FOR TUMORS THAT EXPRESS SAID PROTEIN” (FUNDACIÓN INSITITUTO DE INVESTIGACIÓN SANITARIA DE SANTIAGO …, priority 2018, published 2021):

What was measured:
[1] = system: SW620 cells; test: Cell proliferation of SW620 cells with free ligand in the medium (cell counting); assay type: cell-based, human
Experimental: FIG. 8. RT-PCR of the receptor when the cells are kept in contact with lactisole for 9 days, comparing it with the controls (SW620 cultured in medium with low glucose concentration) (A). Cell proliferation of SW620 cells cultured in medium with low glucose concentration, and increasing concentrations of lactisole (from 0.44 mg/mL to 7 mg/mL) for 72 h (B). Colony formation of control SW620 cells or in contact with the lactisole ligand, at a concentration of 3.5 mg/mL, after 15 days of culture (C). Beta-galactosidase staining, indicative of cellular senescence, in SW620 cells treated with lactisole (3.5 mg/mL for 72 hours, arrows show cells where staining can be seen) (D). Western blot showing the expression of different proteins involved in tumor progression in SW620 cells when they are exposed to different glucose concentrations (high and low) and lactisole (3.5 mg/ml) for 9 days (E). […] Cell proliferation studies were carried out in SW620 cells, FIG. 7A, cultured in medium with high and low glucose concentration. […] Photos were taken using the microscope (Leica DMIL® microscope) and subsequently they were trypsinized, and the number of cells was counted to make the comparison between these and the starting ones in order to observe the effect of the ligand on the cells. […]

[2] = Immunization of mice with TAS1R3 peptide, titration of bleeds; assay type: in vivo; conditions: 4 plus 2 doses of 50 μg of peptide
Experimental: The resulting protein was purified to homogeneity with a final purity of 90-95%, 2 mg conjugated to KLH, 3 mg conjugated to BSA. The design of the genomic construct was carried out based on the literature (Maitrepierre et al., 2012). Likewise, a study of storage buffer formulation was carried out to preserve the integrity of the protein (restricting the use of detergents and polysaccharides in the final formula). The batch obtained was aliquoted in labeled sterile vials and stored at −80° C. until use. After several immunizations of the mice with 4 plus 2 doses of 50 μg of peptide, the bleeds were titrated in order to evaluate the increase of the response against the peptide.

[3] = system: p-ERK, p-AKT, IGF-IR; test: Western blot of proteins involved in tumor progression in SW620 cells; assay type: cell-based, human; conditions: SW620, lactisole 3.5 mg/ml or high glucose (HG), 9 days (FIG. 8E)
Experimental: FIG. 8. RT-PCR of the receptor when the cells are kept in contact with lactisole for 9 days, comparing it with the controls (SW620 cultured in medium with low glucose concentration) (A). Cell proliferation of SW620 cells cultured in medium with low glucose concentration, and increasing concentrations of lactisole (from 0.44 mg/mL to 7 mg/mL) for 72 h (B). Colony formation of control SW620 cells or in contact with the lactisole ligand, at a concentration of 3.5 mg/mL, after 15 days of culture (C). Beta-galactosidase staining, indicative of cellular senescence, in SW620 cells treated with lactisole (3.5 mg/mL for 72 hours, arrows show cells where staining can be seen) (D). […]
For the qualitative study of proteins, Western Blot was performed from proteins isolated from the SW620 cell line, and the results are shown in FIG. 6 (B). […] The total protein of each sample was quantified by the […] (conversion method of bicathionic to monocationic copper in alkaline conditions influenced by specific amino acids such as cysteine, cystine, tryptophan, tyrosine and also by the peptide chain; the amount of bicathionic copper will depend of the amount of these components and will be determined spectrophotopically) using the commercial kit DC-Assay (BIO-RAD®) and establishing a calibration line with bovine serum albumin (BSA, Sigma-Aldrich). […]

[4] = system: TAS1R3 receptor; test: RT-PCR of TAS1R3 receptor in SW620 cells kept in contact with lactisole; assay type: cell-based, human; conditions: SW620, low glucose medium, lactisole for 9 days, versus controls (FIG. 8A)
Experimental: Metastatic colon cells from the lymph node (SW620, CCL-227), colorectal adenocarcinoma epithelial cells (SW480, CCL-228), lung carcinoma epithelial cells (A549, CCL-185), and metastatic lung cells from the liver (H1755, CRL-5892), pancreatic carcinoma cells (MIA PaCa-2, CRL-1420), and glioblastoma cells (U118, HTB-15 and U87MG, HTB-14) were used. The SW620, SW480, A549, U118 and U87MG lines were maintained in DMEM HG medium (Dulbecco's Modified Eagle's Medium—High glucose, Sigma-Aldrich), and the H1755 line in RPMI 1640 medium (Gibco®, LifeTecnologies), both supplemented to the 10% with fetal bovine serum (Gibco®, LifeTecnologies) and 1% with antibiotic (penicillin and streptomycin, Sigma-Aldrich). For the quantitative analysis of the expression of TAS1R3, a polymerase chain reaction was carried out with reverse transcriptase (RT-PCR), starting from RNA extracted from all cell lines in culture. […] RNA extraction was carried out using the extraction kit (GeneJET RNA Purification Kit, ThermoScientic), and the analysis was carried out in a manner similar to that described in a previous paragraph. Once the procedure was finished, the data were analyzed.

[5] = system: SW620 cells; test: Colony formation of SW620 cells with free ligand; assay type: cell-based, human; conditions: SW620, low glucose medium, 3.5 mg/mL ligand, 15 days, versus control SW620 (FIG. 8C)
Experimental: Cell proliferation studies were carried out in SW620 cells, FIG. 7A, cultured in medium with high and low glucose concentration. The cells were trypsinized and plated the same number of cells in order to count them at times 0, 24, 72, 96 and 168 hours, using for this the Neubauer chamber, after trypsinization thereof. In an analogous manner, cell proliferation studies were carried out in medium with the presence of free ligand, FIG. 8, which was added to the culture medium at different concentrations. Photos were taken using the microscope (Leica DMIL® microscope) and subsequently they were trypsinized, and the number of cells was counted to make the comparison between these and the starting ones in order to observe the effect of the ligand on the cells. […] However, when studies of colony formation were carried out, starting from an amount of 200 cells per well and waiting for 15 days, it was observed that cells cultured in medium with low concentration of glucose, and that express higher levels of receptor, formed more colonies than those grown in high glucose medium (FIG. 7B). For colony formation studies, 12 well plates were used, plating in different amounts of cells (200, 400,600 and 800 cells per well), in medium with high (4500 mg/L) and low (1000 mg/L) content of glucose. […]

[6] = system: SW620 cells; test: Beta-galactosidase staining for cellular senescence; assay type: cell-based, human; conditions: SW620, low glucose medium, 3.5 mg/mL, 72 hours (FIG. 8D)
Experimental: To determine whether after cell incubation with the ligand cell senescence is induced, 500,000 cells of the SW620 line were cultured in 6-well plates and medium with low glucose concentration. In several wells, ligand (3.5 mg/mL) was added. After 72 hours, the wells were washed and fixed (2% formaldehyde, 0.2% glutaraldehyde in PBS) for 15 minutes at room temperature. The solution was eliminated giving three washes with 1×PBS, and then the staining solution was applied, calculated for one milliliter of solution: 200 μL citric acid/phosphate buffer, pH 6.0 (dibasic sodium phosphate (Na2HPO4) 0.2 M+0.1 M citric acid), 30 μL 5 M NaCl, 50 μL potassium ferricyanide (K3[Fe(CN)6]) 100 mM, 50 μL potassium ferrocyanide (K4[Fe(CN)6]) 100 mM, 2 μL magnesium chloride (MgCl2) 1 M, 50 μL solution X-gal (20 mg/mL of 5-bromo-4-chloro-3-indolyl β D-galactopyranoside in […]) and 618 μL distilled water. It was incubated in the oven at 37° C. overnight, the wells were washed with distilled water in motion twice, to then apply PBS 1× and observe the possible senescent cells under the Vert microscope. Al, Zeiss®. Blue staining is observed, corresponding to cells in senescence.

CFYDEKR [peptide derived from brazzein, brazzein peptide, ligand for TAS1R3]
Cell proliferation ([1]; SW620, DMEM supplemented with different receptor ligands, extent depends on concentration and molecule (FIG. 8F)): interfere with proliferation

Acetyl-LSQQLRMKGDYVLGGC-amide (Ac-LSQQLRMKGDYVLGGC-NH2) [TAS1R3 N-terminal extracellular peptide immunogen, conjugated to KLH / BSA]
Response against the peptide (titration of bleeds) [2]: some response against the peptide, although with very low values

COc1ccc(OC(C)C(=O)O)cc1 (stereo not shown) [lactisole, Lactisole]
Activation of pathways related to tumor progression (western blot) [3]: activates pathways related to tumor progression, such as p-ERK, p-AKT or IGF-IR | Cell proliferation ([1]; SW620, low glucose medium, lactisole 0.44 to 7 mg/mL, 72 h, effect at higher concentrations (FIG. 8B)): interferes with cell proliferation | Expression of the TAS1R3 receptor (RT-PCR) [4]: increase in the expression of the receptor | Colony formation [5]: no representative colony formed on the plate was observed | Cellular senescence (beta-galactosidase staining) [6]: induction of cellular senescence
